Reference: patent publication US6475724B1, “Nucleic acids, kits, and methods for the diagnosis, prognosis and treatment of glaucoma and related disorders” (The Regents of the University of California, priority 1997, dated 2002)
“Also recorded” adds a separate entry of the source.

Tests used:
[1] = IOP response to topical dexamethasone eye drops, Armaly criteria; format: in vivo, human; details: topical dexamethasone eye drops (0.1%) four times a day for four weeks; one line per subject (subjects 1-7); pre- vs post-treatment IOP
Description: Subjects are given standard topical dexamethasone eye drops (0.1%) four times a day, for four weeks. Pre-treatment and post-treatment IOP readings are taken and patients are classified as having high (>16 mmHg), intermediate (6-16 mmHg) or low (<6 mmHg) IOP responses under the “Armaly” criteria. DNA samples are obtained from four subjects having high or intermediate IOP changes. Samples from several non-responder patients were also taken. The DNA samples were analyzed for the presence of the TIGRmt11 variant sequence, as discussed above.

TIGR gene = test: Induction of the TIGR gene by stress stimulants; format: cell-based
HTM cells = test: TIGR 5′ region/promoter AP reporter activity in HTM cells; format: cell-based, human; details: attached reporter gene
Description: The 283 base 5′ fragment of the TIGR 5′ region (SEQ ID NO: 37) is amplified from genomic DNA of a normal human subject as discusssed in Example 3. The DNA is cloned into a pSEAP vector (Clontech, Calif.) so that transcription was under the control of the TIGR sequences. More specifically, pSEAP2-enhancer vector is digested with Srfl to produce a blunt end. The 283 bp fragment is blunt end ligated to the vector using T4 ligase for 2 hours. The vector is transfected into DH5 cells to establish a plasmid clone, TMRE-1/pSEAP. PCR sequencing is used to verify the clone sequence as correct. Similarly, the equivalent genomic fragment amplified from a steroid responder sample, identified as mutant TIGR.mt11, is cloned in pSEAP2-enhancer and called clone TIGR.mt11/pSEAP.
HTM cells, Cos cells (COS-7), and HeLa cells (HeLa 229) are seeded at 10^6 cells per well and incubated with 1 ug of the plasmid DNA to transfect using Lipofectin reagent (GIBCO, Life Technologies, Md.). Some samples of cells were also treated with dexamethasone (DEX). Then, 24, 48, and 72 hours after transfection, AP activity was measured. Cells are collected using a buffer containing L-homoarginine and the chemiluminescent substrate CSPD and a chemiluminescent enhancer added to the samples. The expression levels are then recorded using a luminometer or by brief exposure to X-ray film. […]

Molecule | induction of TIGR gene (TIGR gene) | other results
C[C@@H]1C[C@H]2[C@@H]3CCC4=CC(=O)C=C[C@]4(C)[C@@]3(F)[C@@H](O)C[C@]2(C)[C@@]1(O)C(=O)CO [dexamethasone] |  | CS-IOP Response [1]: Low (low (<6 mmHg)); also recorded: Intermediate (intermediate (6-16 mmHg)); also recorded: High (high (>16 mmHg))
OO [H2O2] | induced | 
CCCCCCCCCCCCCC(=O)O[C@@H]1[C@@H](C)[C@@]2(O)[C@@H](C=C(CO)C[C@]3(O)C(=O)C(C)=C[C@@H]23)[C@H]2C(C)(C)[C@]12OC(C)=O [TPA, 12-O-tetradecanolyphorbol-13-acetate] | induced | 
SEQ ID NO: 37: 283 bp region from 5340 to 5044 of SEQ ID NO: 3, TIGR 5′ regulatory region (nucleic acid, listed as Homo sapiens) DNA: AACTATTATTGGGGTATGGGTGCATAAATTGGGATGTTCTTTTTAAAAAGAAACTCCAAACAGACTTCTGGAAGGTTATTTTCTAAGAATCTTGCTGGCAGCGTGAAGGCAACCCCCCTGTGCACAGCCCCACCCAGCCTCACGTGGCCACCTCTGTCTTCCCCCATGAAGGGCTGGCTCCCCAGTATATATAAACCTCTCTGGAGCTCGGGCATGAGCCAGCAAGGCCACCCATCCAGGCACCTCTCAGCACAGCAGAGCTTTCCAGAGGAAGCCTCACCAA |  | expression of AP activity, HTM cells compared with HeLa or Cos cells (HTM cells): much higher
